Laboratory results from patent US7326700B2, “Cyclohexenyl phenyl carboxamides tocolytic oxytocin receptor antagonists” (Wyeth, priority 2001, dated 2008).

Target: T1, human vasopressin V1a receptor subtype (Homo sapiens, UniProt P37288)
T1 construct: host or cells: CHO cells, stably transfected (pZeoSV vector for the Thibonnier line)
Experiment: Vasopressin binding in CHO cell membranes expressing human vasopressin V1a subtype receptors ([3H]Manning ligand radioligand binding)
Settings: 100 nM
Source text: Chinese hamster ovary cells (CHO cells) stably transfected with the human vasopressin V1a subtype receptors were either obtained from Biosignal Inc., 1744 rue Williams, Montreal, Quebec, Canada or obtained from M. Thibonnier, Case Western Reserve University School of Medicine, Cleveland, Ohio.
CHO cells transfected with the human vasopressin V1a subtype receptors obtained from M. Thibonnier (pZeoSV vector) are allowed to grow to confluency (approx. >90%) in T-150 flasks under sterile conditions, in a cell culture medium consisting of F-12 Nutrient Mixture (HAM) with L-glutamine (Gibco Cat. #11765-054) containing 15 mM HEPES (Gibco Cat. #15630-080), 1% antibiotic/antimycotic (add 5 mL 100×, Gibco Cat. #15240-062 per 500 mL F-12), 250 μg/mL Zeocin (add 1.25 mL of 100 mg/mL Invitrogen R-250-01 per 500 mL F-12) and 10% Fetal Bovine Serum (Qualified, heat inactivated, Gibco Cat. #16140-063). The medium is removed by aspiration and the cells are washed with 10 mL of Hank's Balanced Salt solution (Gibco Cat. #14175-095). The salt solution is removed by aspiration and the cells are trypsinized with 5 mL of trypsin-EDTA (0.05% trypsin, 0.53 mM EDTA-4Na, Gibco Cat. #25300-070) for 1 min. The trypsin is removed by aspiration and the cells dislodged by tapping. Cell Culture medium (eg, 30 mL for 1:30 split) is immediately added and mixed well to inactivate trypsin. 1 mL of detached cells is added to new culture flasks containing fresh cell culture medium (eg, into 25 mL per T-150 flask), and mixed gently. The cells are incubated at 37° C. in 5% CO2. The medium is changed at 3 to 4 days interval (or as appropriate). The cells grow to confluency (approx. >75%-95%) within 7-8 days. All steps are done under sterile conditions.
The cells are washed twice gently with Hank's Balanced Salt solution (e.g,. use 10 mL per T-150 flask). The excess is removed and the cells are bathed for 15-30 min. in an enzyme-free Cell Dissociation Buffer (e.g. use 8 mL Hank's Based, Gibco Cat. #13150-016 per T-150 flask) until the cells are loosened. The contents are transferred to centrifuge tubes (50 mL) kept in an ice bath. All subsequent steps are done at 4° C. The tubes are centrifuged at 300×g for 15 min (1380 rpm on SORVAL, Model RT6000D, using the rotor for 50 mL tubes). The supernatant is discarded and the cells suspended in homogeneizing buffer (10 mM Tris-HCl containing 0.25 M sucrose and 1 mM EDTA, pH 7.4) ensuring that the volume of the buffer is about ten times the volume of the cell pellet. The cells are pooled into a centrifuge tube (50 mL) and homogenized with Polytron at setting 6 for 10 sec. The homogenate is transferred into a Potter-Elvjehm homogenizer and homogenized with 3 strokes. The homogenate is centrifuged at 1500×g for 10 min at 4° C. (3100 rpm using SORVAL, model RT6000D, using the rotor for 50 mL tubes). The pellet is discarded. The supernatant is centrifuged at 100,000×g for 60 min. at 4° C. (Beckman L8-80M ultracentrifuge; spin at 37,500 rpm with rotor type 70 Ti for 50 mL tubes; 38,000 rpm with type 80Ti for 15 mL tubes; or 35,800 rpm with rotor type 45Ti). The supernantant is discarded and the pellet suspended in 3 to 4 mL of Tris buffer (50 mM TRIS-HCl, pH 7.4). The protein content is estimated by the Bradford or Lowry method. The volume of the membrane suspension is adjusted with the membrane buffer (50 mM Tris-HCl containing 0.1% BSA and 0.1 mM PMSF) to give 3.0 mg/mL (or as appropriate) of protein. The membranes are aliquoted and stored at −70° C.
In wells of a 96-well format microtiter plate, is added 90, 110 or 130 μL (to make up a final volume of 200 μL) of assay buffer containing 50 mM of Tris-HCl (pH 7.4), BSA (heat inactivated, protease-free), […], 1 mg % aprotinin, 1 mg % leupeptin, 2 mg % 1,10-phenanthroline, 10 mg % trypsin inhibitor, and 0.1 mM PMSF. The inhibitors are added on the day of the experiment. […]

T1 sequence (P37288 whole entry): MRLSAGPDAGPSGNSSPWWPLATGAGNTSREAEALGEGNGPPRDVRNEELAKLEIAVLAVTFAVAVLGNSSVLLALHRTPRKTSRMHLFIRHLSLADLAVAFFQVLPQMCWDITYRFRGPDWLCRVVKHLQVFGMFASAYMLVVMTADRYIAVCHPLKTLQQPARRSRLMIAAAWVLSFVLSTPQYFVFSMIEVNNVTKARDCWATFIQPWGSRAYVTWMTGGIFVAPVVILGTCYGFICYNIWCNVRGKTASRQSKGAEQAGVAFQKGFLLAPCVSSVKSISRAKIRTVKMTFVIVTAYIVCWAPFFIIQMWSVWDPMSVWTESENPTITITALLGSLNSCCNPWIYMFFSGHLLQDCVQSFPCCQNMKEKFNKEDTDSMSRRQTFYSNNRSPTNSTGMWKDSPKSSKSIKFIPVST

V1a % inhibition @ 100 nM	Molecule
12%	C=CCN1CCN(C(=O)c2ccc3n2Cc2ccccc2N(C(=O)c2ccc(C4=CCCCC4)c(C)c2)C3)CC1 [Example 24, (4-Allyl-1-piperazinyl){10-[4-(1-cyclohex-1-en-1-yl)-3-methylbenzoyl]-10,11-dihydro-5H-pyrrolo[2,1-c][1,4]benzodiazepin-3-yl}methanone]
24%	Cc1cc(C(=O)N2Cc3ccc(C(=O)N4CCN(C(C)C)CC4)n3Cc3ccccc32)ccc1C1=CCCCC1 [Example 25, {10-[4-(1-Cyclohex-1-en-1-yl)-3-methylbenzoyl]-1 0,11-dihydro-5H-pyrrolo[2,1-c][1,4]benzodiazepin-3-yl}(4-isopropyl-1-piperazinyl)methanone]
38%	Cc1cc(C(=O)N2Cc3ccc(C(=O)N4CCC[C@H]4CN4CCCC4)n3Cc3ccccc32)ccc1C1=CCCCC1 [Example 26, {10-[4-(1-Cyclohex-1-en-1-yl)-3-methylbenzoyl]-10,11-dihydro-5H-pyrrolo[2,1-c][1,4]benzodiazepin-3-yl}[(2S)-2-(1-pyrrolidinylmethyl)pyrrolidinyl]methanone]
62%	Cc1cc(C(=O)N2Cc3ccc(C(=O)N4CC[C@@H](N(C)C)C4)n3Cc3ccccc32)ccc1C1=CCCCC1 [Example 27, {10-[4-(1-Cyclohex-1-en-1-yl)-3-methylbenzoyl]-10,11-dihydro-5H-pyrrolo[2,1-c][1,4]benzodiazepin-3-yl}[(3R)-3-(dimethylamino)pyrrolidinyl]methanone]

Further lines, the molecule ahead of its results:

Molecule	V1a % inhibition @ 100 nM
Cc1cc(C(=O)N2Cc3ccc(C(=O)N4CCN(CCN(C)C)CC4)n3Cc3ccccc32)ccc1C1=CCCCC1 [Example 22, {10-[4-(1-Cyclohex-1-en-1-yl)-3-methylbenzoyl]-10,11-dihydro-5H-pyrrolo[2,1-c][1,4]benzodiazepin-3-yl}{4-[2-(dimethylamino)ethyl]-1-piperazinyl}methanone]	34%
Cc1cc(C(=O)N2Cc3ccc(C(=O)N4CCN(CCN5CCOCC5)CC4)n3Cc3ccccc32)ccc1C1=CCCCC1 [Example 23, {10-[4-(1-Cyclohex-1-en-1-yl)-3-methylbenzoyl]-10,11-dihydro-5H-pyrrolo[2,1-c][1,4]benzodiazepin-3-yl}{4-[2-(4-morpholinyl)ethyl]-1-piperazinyl}methanone]	27%

Same assay, conditions: value in parentheses

IC50	Molecule
421 nM	{10-[4-(1-Cyclohexen-1-yl)-3-methylbenzoyl]-10,11-dihydro-5H-pyrrolo[2,1-c][1,4]benzodiazepin-3-yl}(4-methyl-piperazin-1-yl)methanone [Example 12]
